# Results reported in patent US9353090B2, “Heterocyclic carboxylic acids as activators of soluble guanylate cyclase” (Boehringer Ingelheim International GmbH, priority 2014, dated 2016).
# What was measured:
# [1] = target: human soluble guanylate cyclase alpha 1 and beta 1 subunits (sGC) (Homo sapiens (Human), UniProt Q02108+Q02153); experiment: sGC cellular activator assay (cGMP, HTRF), in the presence and absence of 50% human serum; type: cell-based; settings: CHO cells stably expressing human sGC alpha 1/beta 1, preincubated with 40 microM ODQ; cGMP by HTRF; Table 2 does not state whether with or without 50% human serum
# Method in brief: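 Heme-oxidized conditions: ODQ (40 microM, 1 h) pretreatment of CHO cells stably expressing human α1/β1 sGC, in buffer containing 0.1% BSA and IBMX.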
# [2] = Human liver microsome (HLM) metabolic stability assay; type: in vitro ADME; settings: human liver microsomes
# Method in brief: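 Compound at 1 uM incubated with human liver microsomes at 37° C. for 60 min after NADPH addition. Aliquots quenched in cold acetonitrile at 0, 5, 15, 30 and 60 min and analysed by LC/MS/MS. t1/2 from ln(% remaining) vs time slope; CLint, CLh and % Qh derived from it (n=1).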
# physchem = settings: kinetic from dmso stock
# [3] = pH 2.2, aqueous buffer, Solubility (pH 2.2)
# [4] = pH 4.5, aqueous buffer, Solubility (pH 4.5)
# [5] = pH 6.8, aqueous buffer, Solubility (pH 6.8)
# Sequence of human soluble guanylate cyclase alpha 1 and beta 1 subunits (sGC) (Q02108 whole entry partner): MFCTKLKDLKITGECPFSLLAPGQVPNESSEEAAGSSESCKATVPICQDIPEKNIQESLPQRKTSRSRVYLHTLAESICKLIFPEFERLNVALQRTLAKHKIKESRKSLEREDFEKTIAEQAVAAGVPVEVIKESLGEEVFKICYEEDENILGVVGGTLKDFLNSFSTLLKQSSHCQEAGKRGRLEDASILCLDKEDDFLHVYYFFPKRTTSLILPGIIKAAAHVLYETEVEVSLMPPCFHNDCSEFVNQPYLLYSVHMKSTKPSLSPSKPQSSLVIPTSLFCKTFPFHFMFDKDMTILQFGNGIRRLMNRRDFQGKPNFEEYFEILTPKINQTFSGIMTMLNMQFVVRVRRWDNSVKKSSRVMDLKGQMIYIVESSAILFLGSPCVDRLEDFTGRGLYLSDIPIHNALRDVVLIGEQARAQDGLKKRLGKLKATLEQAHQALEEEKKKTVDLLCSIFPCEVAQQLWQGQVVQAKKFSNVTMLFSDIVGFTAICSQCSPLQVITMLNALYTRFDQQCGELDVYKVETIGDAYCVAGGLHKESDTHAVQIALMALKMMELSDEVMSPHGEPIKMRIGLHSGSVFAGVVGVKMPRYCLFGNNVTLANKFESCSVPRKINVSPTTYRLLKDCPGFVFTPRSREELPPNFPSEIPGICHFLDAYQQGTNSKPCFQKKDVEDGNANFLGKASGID
# Sequence of human soluble guanylate cyclase alpha 1 and beta 1 subunits (sGC) (Q02153 whole entry): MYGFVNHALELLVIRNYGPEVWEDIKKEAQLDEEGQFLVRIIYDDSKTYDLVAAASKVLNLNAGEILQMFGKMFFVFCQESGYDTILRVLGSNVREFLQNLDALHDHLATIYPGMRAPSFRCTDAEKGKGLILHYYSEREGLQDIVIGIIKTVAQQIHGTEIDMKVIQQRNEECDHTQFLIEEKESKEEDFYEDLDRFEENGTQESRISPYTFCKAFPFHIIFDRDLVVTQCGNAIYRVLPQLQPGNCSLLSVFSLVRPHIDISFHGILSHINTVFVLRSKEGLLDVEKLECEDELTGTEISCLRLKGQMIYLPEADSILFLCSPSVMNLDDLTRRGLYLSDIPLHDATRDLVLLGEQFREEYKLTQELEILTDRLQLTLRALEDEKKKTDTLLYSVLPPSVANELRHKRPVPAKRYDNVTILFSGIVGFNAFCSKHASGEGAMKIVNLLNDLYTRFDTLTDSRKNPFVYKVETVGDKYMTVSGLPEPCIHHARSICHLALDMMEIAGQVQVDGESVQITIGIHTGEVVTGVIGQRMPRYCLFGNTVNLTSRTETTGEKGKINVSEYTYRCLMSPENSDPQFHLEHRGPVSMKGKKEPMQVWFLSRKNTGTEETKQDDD
SMILES,EC50 [1] [µM],"Metabolic stability (Qh %), % hepatic blood flow [2] [%]",solubility at 24 h (physchem; [3]) [mg/mL],solubility at 24 h (physchem; [4]) [mg/mL],solubility at 24 h (physchem; [5]) [mg/mL]
CCc1cc(COc2c(C)cccc2-c2cccc(N3C[C@@H]4C[C@]4(C(=O)O)[C@H]3COC)n2)cc2c1CN(C1COC1)CC2 [Compound 54],0.016,39,0.13,0.09,0.081
CCc1cc(COc2c(C)cccc2-c2cccc(N3C[C@@H]4C[C@]4(C(=O)O)[C@H]3COC)n2)cc2c1CN(C1CCOC1)CC2 (stereo partly drawn) [Compound 55],0.01,<24,0.15,0.11,0.082
CCc1cc(COc2c(C)cccc2-c2cccc(N3C[C@@H]4C[C@]4(C(=O)O)[C@H]3COC)n2)cc2c1CN(CC1COCCO1)CC2 (stereo partly drawn) [Compound 56],0.026,<24,0.14,0.12,0.088
COC[C@H]1N(c2cccc(-c3cccc(C)c3OCc3cc4c(c(OC)c3)CN(C3CCOCC3)CC4)n2)C[C@@H]2C[C@@]21C(=O)O [Compound 57],0.021,<24,0.12,0.099,0.078
COC[C@H]1N(c2cccc(-c3cccc(C)c3OCc3cc4c(c(OC)c3)CN(C3COC3)CC4)n2)C[C@@H]2C[C@@]21C(=O)O [Compound 58],0.03,<24,0.11,0.09,0.08
COC[C@H]1N(c2cccc(-c3cccc(C)c3OCc3cc(C)c4c(c3F)CCN(C3CCOCC3)C4)n2)C[C@@H]2C[C@@]21C(=O)O [Compound 59],0.008,<24,0.12,0.099,0.074
COC[C@H]1N(c2cccc(-c3cccc(C)c3OCc3ccc4c(c3C)CCN(C3COC3)CC4)n2)C[C@@H]2C[C@@]21C(=O)O [Compound 60],0.006,<24,0.12,0.1,0.079
COC[C@H]1N(c2cccc(-c3cccc(C)c3OCc3ccc4c(c3C)CCN(C3CCOCC3)CC4)n2)C[C@@H]2C[C@@]21C(=O)O [Compound 61],0.008,<24,0.11,0.096,0.074
COC[C@@H]1N(c2cccc(-c3cccc(C)c3OCc3cc(C)c4c(c3)CCN(C3CCOCC3)C4)n2)C[C@@H]2C[C@@]21C(=O)O [Compound 62],0.465,<24,0.13,0.13,0.13
COC[C@@H]1N(c2cccc(-c3cccc(C)c3OCc3cc(C)c4c(c3)CCN(C3CCOCC3)C4)n2)C[C@H]2C[C@]21C(=O)O [Compound 63],0.096,<24,0.13,0.13,0.13
"CO[C@H]1CN(c2cccc(-c3cccc(C)c3OCc3ccc4c(c3)CCN(C3CCOCC3)C4)n2)CC[C@H]1C(=O)O [Compound 64, (3R,4R)-3-Methoxy-6′-{3-methyl-2-[2-(tetrahydro-pyran-4-yl)-1,2,3,4-tetrahydro-isoquinolin-6-ylmethoxy]-phenyl}-3,4,5,6-tetrahydro-2H-[1,2′]bipyridinyl-4-carboxylic acid]",0.036,29,0.1,0.088,0.069
CO[C@H]1CN(c2cccc(-c3cccc(C)c3OCc3ccc4c(c3C)CCN(C3CCOCC3)C4)n2)CC[C@H]1C(=O)O [Compound 65],0.029,31,0.13,0.11,0.08
CO[C@H]1CN(c2cccc(-c3cccc(C)c3OCc3ccc4c(c3C)CCN(C3COC3)C4)n2)CC[C@H]1C(=O)O [Compound 66],0.02,33,0.1,0.084,0.064
CO[C@@H]1CN(c2cccc(-c3cccc(C)c3OCc3ccc4c(c3)CCN(C3CCOCC3)C4)n2)CC[C@@H]1C(=O)O [Compound 67],0.023,<24,0.1,0.092,0.071
CO[C@@H]1CN(c2cccc(-c3cccc(C)c3OCc3ccc4c(c3C)CCN(C3CCOCC3)C4)n2)CC[C@@H]1C(=O)O [Compound 68],0.014,<24,0.14,0.12,0.093
CO[C@@H]1CN(c2cccc(-c3cccc(C)c3OCc3ccc4c(c3C)CCN(C3COC3)C4)n2)CC[C@@H]1C(=O)O [Compound 69],0.016,<24,0.13,0.11,0.089
CO[C@H]1CN(c2cccc(-c3cc(C)ccc3OCc3ccc4c(c3)CCN(C3CCOCC3)C4)n2)CC[C@H]1C(=O)O [Compound 70],0.12,<24,0.13,0.12,0.083
CO[C@H]1CN(c2cccc(-c3cc(C)ccc3OCc3ccc4c(c3C)CCN(C3CCOCC3)C4)n2)CC[C@H]1C(=O)O [Compound 71],0.11,<24,0.13,0.11,0.081
CO[C@H]1CN(c2cccc(-c3cc(C)ccc3OCc3cc(C)c4c(c3)CCN(C3CCOCC3)C4)n2)CC[C@H]1C(=O)O [Compound 72],0.064,<24,0.12,0.1,0.074
CO[C@H]1CN(c2cccc(-c3cc(C)ccc3OCc3ccc4c(c3C)CCN(C3CCOCC3)CC4)n2)CC[C@H]1C(=O)O [Compound 73],0.057,28,0.11,0.093,0.069
CO[C@@H]1CN(c2cccc(-c3cc(C)ccc3OCc3ccc4c(c3)CCN(C3CCOCC3)C4)n2)CC[C@@H]1C(=O)O [Compound 74],0.02,<24,0.12,0.1,0.08
CO[C@@H]1CN(c2cccc(-c3cc(C)ccc3OCc3ccc4c(c3C)CCN(C3CCOCC3)C4)n2)CC[C@@H]1C(=O)O [Compound 75],0.015,<24,0.12,0.11,0.074
CO[C@@H]1CN(c2cccc(-c3cc(C)ccc3OCc3cc(C)c4c(c3)CCN(C3CCOCC3)C4)n2)CC[C@@H]1C(=O)O [Compound 76],0.025,<24,0.13,0.11,0.08
CO[C@@H]1CN(c2cccc(-c3cc(C)ccc3OCc3cc(C)c4c(c3)CCN(C3CCOC3)C4)n2)CC[C@@H]1C(=O)O (stereo partly drawn) [Compound 77],0.071,<24,0.11,0.095,0.064
CCc1cc(COc2ccc(C)cc2-c2cccc(N3CC[C@H](C(=O)O)[C@H](OC)C3)n2)cc2c1CN(C1CCOCC1)CC2 [Compound 79],0.025,<24,0.14,0.12,0.091
COc1cc(COc2ccc(C)cc2-c2cccc(N3CC[C@H](C(=O)O)[C@H](OC)C3)n2)cc2c1CN(C1CCOCC1)CC2 [Compound 80],0.023,<24,0.15,0.13,0.092
CO[C@@H]1CN(c2cccc(-c3cc(C)ccc3OCc3ccc4c(c3C)CCN(C3CCOCC3)CC4)n2)CC[C@@H]1C(=O)O [Compound 81],0.03,30,> 0.16,> 0.16,0.091
O=C(O)[C@@]12CCN(c3nc(-c4ccccc4OCc4ccc5c(c4)CCN(C4CCOCC4)C5)cs3)C[C@@H]1C2 [Compound 82],0.01,<24,0.1,0.04,0.022
Cc1c(COc2ccccc2-c2csc(N3CC[C@@]4(C(=O)O)C[C@H]4C3)n2)ccc2c1CCN(C1CCOCC1)C2 [Compound 83],0.004,<24,0.12,0.047,0.013
Cc1cccc(-c2csc(N3CC[C@@]4(C(=O)O)C[C@H]4C3)n2)c1OCc1ccc2c(c1)CCN(C1CCOCC1)C2 [Compound 84],0.027,<24,0.12,0.07,0.053
